For test [1], the target named is RNA-directed RNA polymerase (Hepacivirus hominis, UniProt O39930). Description: Inhibitory activity against HCV 1b BK NS5B deltaC21 RNA polymerase. Also noted: species or system Hepatitis C virus subtype 1b.
A further test deals with Hepatitis C virus. Nature of the test: Antiviral activity against HCV 1b in Huh7 cell line upto 10 uM by replicon assay. Type of test: functional, cell-based. The note with it: Hepacivirus hominis; genotype 1b; Huh-7.

Molecules are shown by their SMILES. Active and inactive are the calls of the source. No cut-off for these calls is given here.

Chain of RNA-directed RNA polymerase (O39930 whole entry): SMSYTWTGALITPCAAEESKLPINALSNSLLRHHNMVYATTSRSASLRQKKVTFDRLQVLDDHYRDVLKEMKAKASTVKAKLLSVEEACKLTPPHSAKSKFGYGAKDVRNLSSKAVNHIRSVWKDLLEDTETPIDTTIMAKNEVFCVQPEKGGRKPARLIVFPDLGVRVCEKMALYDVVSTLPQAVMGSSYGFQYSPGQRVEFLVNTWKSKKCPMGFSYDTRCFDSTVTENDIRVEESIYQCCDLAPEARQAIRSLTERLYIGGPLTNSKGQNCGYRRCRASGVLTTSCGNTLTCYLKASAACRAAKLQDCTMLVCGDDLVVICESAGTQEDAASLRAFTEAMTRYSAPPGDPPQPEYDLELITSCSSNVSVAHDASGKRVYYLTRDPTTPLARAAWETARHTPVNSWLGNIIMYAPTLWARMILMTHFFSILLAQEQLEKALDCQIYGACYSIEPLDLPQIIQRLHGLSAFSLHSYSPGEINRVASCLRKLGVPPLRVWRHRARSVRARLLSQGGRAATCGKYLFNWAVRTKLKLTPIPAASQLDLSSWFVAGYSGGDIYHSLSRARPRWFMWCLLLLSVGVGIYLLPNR

As to `O=C1CC(=O)OC(CCc2ccc(O)cc2)(C2CCC2)C1` (configuration not stated), the 50% inhibitory concentration (IC50) (commonly the concentration needed to halve the response being measured) in test [1] stood at 93000 nM. Moreover, the outcome in the test with Hepatitis C virus was inactive.
In the case of `CC(C)Oc1ccc(CCC2(C3CCCC3)CC(=O)CC(=O)O2)cc1` (configuration not stated), 1700 nM corresponded to half-maximal inhibition in test [1] (IC50). In addition, the result in the test with Hepatitis C virus was inactive.
On the same counts, the results for `COc1ccc(CCC2(C3CCCC3)CC(=O)CC(=O)O2)cc1` (configuration not stated) are 9700 nM and “inactive”.
On the same counts, the results for `O=C1CC(=O)OC(CCc2ccc(O)cc2)(C2CCCCC2)C1` (configuration not stated) are 52000 nM and “inactive”.
The matching figures for `O=C1CC(=O)OC(CCc2cccc(Cl)c2)(C2CCCC2)C1` (configuration not stated): 5000 nM and “inactive”.
`COc1ccc(CCC2(C3CCCC3)CC(=O)C(Sc3nccn3C)=C(O)O2)cc1Cl` (configuration not stated) registered an IC50 in test [1] of 140 nM. The outcome with Hepatitis C virus was inactive.
On the same counts, the results for `O=C1CC(=O)OC(CCc2ccccc2)(C2CCCC2)C1` (configuration not stated) are 48000 nM and “inactive”.
On the same counts, the results for `Cc1cccc(CCC2(C3CCCC3)CC(=O)CC(=O)O2)c1` (configuration not stated) are 23000 nM and “inactive”.
On the same counts, the results for `COc1ccc(CCC2(C3CCCC3)CC(=O)C(Sc3nncn3C)=C(O)O2)cc1Cl` (configuration not stated) are 38 nM and “inactive”.
Regarding `CC(C)c1cccc(CCC2(C3CCCC3)CC(=O)CC(=O)O2)c1` (configuration not stated), the IC50 in test [1] worked out at 1800 nM. Moreover, in the test with Hepatitis C virus, the result was inactive.
As to `O=C1CC(=O)OC(CCc2ccc(O)cc2)(C2CCCC2)C1` (configuration not stated), 8200 nM corresponded to half-maximal inhibition in test [1] (IC50). Further, the outcome with Hepatitis C virus was inactive.
The matching figures for `CCOc1ccc(CCC2(C3CCCC3)CC(=O)CC(=O)O2)cc1` (configuration not stated): 2900 nM and “inactive”.
On the same counts, the results for `CC1(CCc2ccc(O)cc2)CC(=O)CC(=O)O1` (configuration not stated) are > 100000 nM and “inactive”.
As to `CC(C)Oc1ccc(CCC2(C3CCCC3)CC(=O)CC(=O)O2)cc1F` (configuration not stated), the outcome in the test with Hepatitis C virus was inactive.
Regarding `COc1ccc(CCC2(C3CCCC3)CC(=O)C(Sc3nnnn3C)=C(O)O2)cc1Cl` (configuration not stated), in test [1], inhibition was half-maximal at 280 nM (IC50). Also, the outcome in the test with Hepatitis C virus was inactive.
On the same counts, the results for `COc1ccc(CCC2(C3CCCC3)CC(=O)CC(=O)O2)cc1F` (configuration not stated) are 890 nM and “inactive”.
On the same counts, the results for `COc1ccc(CCC2(C3CCCC3)CC(=O)C(Sc3ccc(O)cc3)=C(O)O2)cc1Cl` (configuration not stated) are 130 nM and “inactive”.
On the same counts, the results for `CCCC1(CCc2ccc(OC)cc2)CC(=O)CC(=O)O1` (configuration not stated) are > 50000 nM and “inactive”.
Turning to `COc1ccc(CCC2(C3CCCC3)CC(=O)CC(=O)O2)cc1Cl` (configuration not stated), in test [1], the IC50 was determined as 1000 nM. Also, in the test with Hepatitis C virus, the result was inactive.
In turn, `CCc1cccc(CCC2(C3CCCC3)CC(=O)CC(=O)O2)c1` (configuration not stated) had an IC50 in test [1] of 3600 nM. In the test on Hepatitis C virus, the outcome was inactive.
On the same counts, the results for `CCOc1ccc(CCC2(C3CCCC3)CC(=O)CC(=O)O2)cc1F` (configuration not stated) are 790 nM and “inactive”.
In test [1], `COc1ccc(CCC2(C3CCCC3)CC(=O)C(Sc3ccccc3)=C(O)O2)cc1Cl` (configuration not stated) gave a half-inhibitory concentration (IC50) of 560 nM. In addition, in the test with Hepatitis C virus, the result was inactive.
The matching figures for `Cc1cc(SC2=C(O)OC(CCc3ccc(O)cc3)(C3CCCC3)CC2=O)c(C(C)(C)C)cc1N` (configuration not stated): 930 nM and “inactive”.
On the same counts, the results for `CC(C)c1ccc(CCC2(C3CCCC3)CC(=O)CC(=O)O2)cc1` (configuration not stated) are 4300 nM and “inactive”.
